PubChem BioAssay (NCI)
“And” between values parts separate entries of the source, which are not always exact repeats. Identical values can stand only once.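 Assay format: 96-well plates, 48-hour exposure. GI50 = concentration required for 50% inhibition of growth. TGI marks complete inhibition of growth.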

Assays:
P388 leukemia = assay: NCI tumour cell line growth inhibition, 48 h
P388/ADR leukemia = assay: NCI tumour cell line growth inhibition, 48 h

Structure (SMILES): S=c1nc[nH]c2nc[nH]c12
- TGI (P388 leukemia): 242 µM
- TGI (P388/ADR leukemia): 548 µM

Structure (SMILES): COC1=C(C)C(=O)C2=C(C1=O)C(CO)N1C(C#N)C3CC4C(C1C2N1CCOC41)N3C (configuration not stated)
- TGI (P388/ADR leukemia): > 100 µM

Structure (SMILES): COc1ccc2[nH]c3c(C)c4cc[n+](C)cc4c(C)c3c2c1
- GI50 (P388 leukemia): 1780 nM
- TGI (P388 leukemia): 19.1 µM and 10.8 µM and 16.5 µM
- GI50 (P388/ADR leukemia): 20.8 µM
- TGI (P388/ADR leukemia): > 56.2 µM and > 75 µM and 125 µM
